≈ marks a conversion by molar mass, not a printed value.
Tested on: S. aureus clinical isolates and S. aureus ATCC 29213
Assay: MIC assay according to CLSI criteria, Example 2, S. aureus strains
Format: cell-based, Staphylococcus aureus
Settings: Staphylococcus aureus
Outline: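 Wells received roughly 5×10^5 S. aureus cells taken in exponential growth, in cation-adjusted MH broth. Plates held aerobically at 37° C for 18 hours.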

## CN[C@H](CC(C)C)C(=O)N[C@H]1C(=O)N[C@@H](CC(N)=O)C(=O)N[C@H]2C(=O)N[C@H]3C(=O)N[C@H](C(=O)N[C@H](C(=O)O)c4cc(O)cc(O)c4-c4cc3ccc4O)[C@H](O)c3ccc(c(Cl)c3)Oc3cc2cc(c3O[C@@H]2O[C@H](CO)[C@@H](O)[C@H](O)[C@H]2O[C@H]2C[C@](C)(N)[C@H](O)[C@H](C)O2)Oc2ccc(cc2Cl)[C@H]1O [Vancomycin]
ATCC29213, strain 9-1862936
  MIC: 1 µg/mL (≈ 0.69 µM)
ATCC29213, strain 9-2625962
  MIC: 1 µg/mL (≈ 0.69 µM)
ATCC29213, strain 9-2642158
  MIC: 1 µg/mL (≈ 0.69 µM)
ATCC29213, strain 9-2955245
  MIC: 1 µg/mL (≈ 0.69 µM)
ATCC29213, strain 9-26422166
  MIC: 1 µg/mL (≈ 0.69 µM)
ATCC29213, strain 000040C
  MIC: 1 µg/mL (≈ 0.69 µM)
ATCC29213, strain 000041C
  MIC: 1 µg/mL (≈ 0.69 µM)
ATCC29213, strain 000274T
  MIC: 1 µg/mL (≈ 0.69 µM)
ATCC29213, strain 114660U
  MIC: 1 µg/mL (≈ 0.69 µM)
ATCC29213, strain 115015T
  MIC: 2 µg/mL (≈ 1.38 µM)
ATCC29213, strain 115242C
  MIC: 1 µg/mL (≈ 0.69 µM)
ATCC29213, strain 115263C
  MIC: 2 µg/mL (≈ 1.38 µM)
ATCC29213, strain 115268C
  MIC: 1 µg/mL (≈ 0.69 µM)
ATCC29213, strain 115273C
  MIC: 1 µg/mL (≈ 0.69 µM)
ATCC29213, strain 115295C
  MIC: 1 µg/mL (≈ 0.69 µM)
ATCC29213, strain 115303C
  MIC: 1 µg/mL (≈ 0.69 µM)
ATCC29213, strain 115370U
  MIC: 1 µg/mL (≈ 0.69 µM)
ATCC29213, strain 115427C
  MIC: 1 µg/mL (≈ 0.69 µM)
ATCC29213, strain 115445C
  MIC: 1 µg/mL (≈ 0.69 µM)
ATCC29213, strain 115561C
  MIC: 1 µg/mL (≈ 0.69 µM)
ATCC29213, strain 115584D
  MIC: 2 µg/mL (≈ 1.38 µM)
ATCC29213, strain 115628T
  MIC: 2 µg/mL (≈ 1.38 µM)
ATCC29213, strain 115690C
  MIC: 2 µg/mL (≈ 1.38 µM)
ATCC29213, strain 115691T
  MIC: 1 µg/mL (≈ 0.69 µM)
ATCC29213, strain 115740E
  MIC: 1 µg/mL (≈ 0.69 µM)
ATCC29213, strain 115810E
  MIC: 1 µg/mL (≈ 0.69 µM)
ATCC29213, strain 115903T
  MIC: 1 µg/mL (≈ 0.69 µM)
ATCC29213, strain 116122T
  MIC: 1 µg/mL (≈ 0.69 µM)
ATCC29213, strain ATCC 29213
  MIC: 1 µg/mL (≈ 0.69 µM)
ATCC29213, strain E5-1029252
  MIC: 1 µg/mL (≈ 0.69 µM)
ATCC29213, strain E5-1029558
  MIC: 1 µg/mL (≈ 0.69 µM)
ATCC29213, strain E5-1030440
  MIC: 1 µg/mL (≈ 0.69 µM)
ATCC29213, strain E5-1030469
  MIC: 2 µg/mL (≈ 1.38 µM)
ATCC29213, strain E5-1030472
  MIC: 1 µg/mL (≈ 0.69 µM)
ATCC29213, strain E5-1030482
  MIC: 1 µg/mL (≈ 0.69 µM)
ATCC29213, strain E5-1033076 (first line, r202)
  MIC: 1 µg/mL (≈ 0.69 µM)
ATCC29213, strain E5-1033076 (second line, r203)
  MIC: 1 µg/mL (≈ 0.69 µM)
ATCC29213, strain E5-1033088
  MIC: 1 µg/mL (≈ 0.69 µM)
ATCC29213, strain E5-1033091
  MIC: 1 µg/mL (≈ 0.69 µM)
ATCC29213, strain E5-1035277
  MIC: 1 µg/mL (≈ 0.69 µM)
ATCC29213, strain E5-1035284
  MIC: 1 µg/mL (≈ 0.69 µM)
ATCC29213, strain E5-1035775
  MIC: 1 µg/mL (≈ 0.69 µM)
ATCC29213, strain E5-1035779
  MIC: 1 µg/mL (≈ 0.69 µM)
ATCC29213, strain E5-1037958
  MIC: 1 µg/mL (≈ 0.69 µM)
ATCC29213, strain E5-1037971
  MIC: 1 µg/mL (≈ 0.69 µM)
ATCC29213, strain E5-1038279
  MIC: 1 µg/mL (≈ 0.69 µM)
ATCC29213, strain E5-1038286
  MIC: 1 µg/mL (≈ 0.69 µM)
ATCC29213, strain E5-1038294
  MIC: 1 µg/mL (≈ 0.69 µM)
ATCC29213, strain E5-1039684
  MIC: 1 µg/mL (≈ 0.69 µM)
ATCC29213, strain E5-1039697
  MIC: 1 µg/mL (≈ 0.69 µM)
ATCC29213, strain E5-1041977
  MIC: 2 µg/mL (≈ 1.38 µM)
ATCC29213, strain E5-1041979
  MIC: 1 µg/mL (≈ 0.69 µM)
ATCC29213, strain E5-1041980
  MIC: 1 µg/mL (≈ 0.69 µM)
ATCC29213, strain E5-1041987
  MIC: 1 µg/mL (≈ 0.69 µM)
ATCC29213, strain E5-1043184
  MIC: 1 µg/mL (≈ 0.69 µM)
ATCC29213, strain E5-1043668
  MIC: 1 µg/mL (≈ 0.69 µM)
ATCC29213, strain E5-1045179
  MIC: 1 µg/mL (≈ 0.69 µM)
ATCC29213, strain E5-1046019
  MIC: 1 µg/mL (≈ 0.69 µM)
ATCC29213, strain E5-1046020
  MIC: 1 µg/mL (≈ 0.69 µM)
ATCC29213, strain E5-1046039
  MIC: 1 µg/mL (≈ 0.69 µM)
ATCC29213, strain E5-1046070
  MIC: 1 µg/mL (≈ 0.69 µM)
ATCC29213, strain E5-1046074
  MIC: 1 µg/mL (≈ 0.69 µM)
ATCC29213, strain E5-1046085
  MIC: 2 µg/mL (≈ 1.38 µM)
ATCC29213, strain E5-1046096
  MIC: 1 µg/mL (≈ 0.69 µM)
ATCC29213, strain E5-1046296
  MIC: 1 µg/mL (≈ 0.69 µM)
ATCC29213, strain E5-1046297
  MIC: 1 µg/mL (≈ 0.69 µM)
ATCC29213, strain E5-1046298
  MIC: 1 µg/mL (≈ 0.69 µM)
ATCC29213, strain E5-1046723
  MIC: 2 µg/mL (≈ 1.38 µM)
ATCC29213, strain E5-1047585
  MIC: 1 µg/mL (≈ 0.69 µM)
ATCC29213, strain E5-1047606
  MIC: 1 µg/mL (≈ 0.69 µM)
ATCC29213, strain E5-1047924
  MIC: 1 µg/mL (≈ 0.69 µM)
ATCC29213, strain E5-1048204
  MIC: 2 µg/mL (≈ 1.38 µM)
ATCC29213, strain E5-1048428
  MIC: 1 µg/mL (≈ 0.69 µM)
ATCC29213, strain E5-1048654
  MIC: 1 µg/mL (≈ 0.69 µM)
ATCC29213, strain E5-1048670
  MIC: 2 µg/mL (≈ 1.38 µM)
ATCC29213, strain EEFIC 01
  MIC: 1 µg/mL (≈ 0.69 µM)
ATCC29213, strain EEFIC 02
  MIC: 1 µg/mL (≈ 0.69 µM)
ATCC29213, strain K000772
  MIC: 1 µg/mL (≈ 0.69 µM)
ATCC29213, strain K000796
  MIC: 1 µg/mL (≈ 0.69 µM)
ATCC29213, strain K000863
  MIC: 1 µg/mL (≈ 0.69 µM)
ATCC29213, strain K000864
  MIC: 1 µg/mL (≈ 0.69 µM)
ATCC29213, strain K000866
  MIC: 1 µg/mL (≈ 0.69 µM)
ATCC29213, strain K115498
  MIC: 2 µg/mL (≈ 1.38 µM)
ATCC29213, strain K115688
  MIC: 2 µg/mL (≈ 1.38 µM)
ATCC29213, strain K115689
  MIC: 2 µg/mL (≈ 1.38 µM)
ATCC29213, strain R000019
  MIC: 2 µg/mL (≈ 1.38 µM)
ATCC29213, strain R000020
  MIC: 1 µg/mL (≈ 0.69 µM)
ATCC29213, strain R000024
  MIC: 1 µg/mL (≈ 0.69 µM)
ATCC29213, strain U115579
  MIC: 1 µg/mL (≈ 0.69 µM)
ATCC 29213 / MRSA, strain MRSA 01
  MIC: 1 µg/mL (≈ 0.69 µM)
ATCC 29213 / MRSA, strain MRSA 02
  MIC: 2 µg/mL (≈ 1.38 µM)
ATCC 29213 / MRSA, strain MRSA 03
  MIC: 1 µg/mL (≈ 0.69 µM)
ATCC 29213 / MRSA, strain MRSA 04
  MIC: 2 µg/mL (≈ 1.38 µM)
ATCC 29213 / MRSA, strain MRSA 05
  MIC: 1 µg/mL (≈ 0.69 µM)
ATCC 29213 / MRSA, strain MRSA 06
  MIC: 2 µg/mL (≈ 1.38 µM)
ATCC 29213 / MRSA, strain MRSA 07
  MIC: 1 µg/mL (≈ 0.69 µM)
ATCC 29213 / MRSA, strain MRSA 08
  MIC: 1 µg/mL (≈ 0.69 µM)
ATCC 29213 / MRSA, strain MRSA 09
  MIC: 2 µg/mL (≈ 1.38 µM)
ATCC 29213 / MRSA, strain MRSA 10
  MIC: 1 µg/mL (≈ 0.69 µM)
ATCC 29213 / MRSA, strain MRSA 11
  MIC: 1 µg/mL (≈ 0.69 µM)
ATCC 29213 / MRSA, strain MRSA 13
  MIC: 1 µg/mL (≈ 0.69 µM)
ATCC 29213 / MRSA, strain MRSA 14
  MIC: 1 µg/mL (≈ 0.69 µM)

From patent publication US11331327B2, “Antibacterial use of halogenated salicylanilides” (UNION therapeutics A/S, priority 2014, dated 2022)
